Consider seven compounds from US6844358B2, “Phenyl oxo-acetic acids useful in the treatment of insulin resistance and hyperglycemia” (Wyeth, priority 1998, dated 2005).

For orientation: IC50 means the point on the concentration scale where inhibition reaches its midpoint. For orientation: melting point means the temperature, or range, at which the solid turns liquid.

Read-outs that look alike come from different tables or passages of the source.

The target of data set [1] is T1, recombinant rat protein tyrosine phosphatase, PTP1B (rPTP1B) (Rattus norvegicus, UniProt P20417).
T1 sequence (P20417 1-432): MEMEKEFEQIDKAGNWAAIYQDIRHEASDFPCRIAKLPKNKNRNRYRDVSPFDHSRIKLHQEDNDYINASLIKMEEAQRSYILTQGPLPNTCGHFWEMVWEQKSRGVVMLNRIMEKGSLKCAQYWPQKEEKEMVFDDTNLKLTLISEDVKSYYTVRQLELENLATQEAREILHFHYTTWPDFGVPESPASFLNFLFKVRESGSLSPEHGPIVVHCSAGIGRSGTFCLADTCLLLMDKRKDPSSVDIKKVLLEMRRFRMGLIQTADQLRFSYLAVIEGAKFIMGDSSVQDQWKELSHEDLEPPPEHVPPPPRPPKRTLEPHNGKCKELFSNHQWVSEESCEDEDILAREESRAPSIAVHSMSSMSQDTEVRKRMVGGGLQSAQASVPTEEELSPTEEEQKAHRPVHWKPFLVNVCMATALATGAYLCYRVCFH
Format: biochemical. The following applies: rPTP1B; for IC50: read-out: IC50.

Data set [2] concerns the target T2, Human recombinant PTP1B (hPTP1B) (Homo sapiens, UniProt P18031).
T2 construct: made in house
T2 sequence (P18031 1-435): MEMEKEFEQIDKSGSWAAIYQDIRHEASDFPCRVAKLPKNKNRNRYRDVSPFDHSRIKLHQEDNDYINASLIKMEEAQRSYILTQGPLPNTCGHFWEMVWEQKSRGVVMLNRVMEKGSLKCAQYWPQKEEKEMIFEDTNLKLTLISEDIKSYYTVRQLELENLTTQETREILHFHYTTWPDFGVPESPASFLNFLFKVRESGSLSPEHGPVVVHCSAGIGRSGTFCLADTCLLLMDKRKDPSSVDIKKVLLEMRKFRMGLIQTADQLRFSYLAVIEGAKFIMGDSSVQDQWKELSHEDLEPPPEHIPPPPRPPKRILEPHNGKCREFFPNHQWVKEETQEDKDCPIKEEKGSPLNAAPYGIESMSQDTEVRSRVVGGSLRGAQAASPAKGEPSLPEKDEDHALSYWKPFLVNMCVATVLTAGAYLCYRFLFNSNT
The class given is biochemical. The note with it: hPTP1B.

A further data set relates to diabetic (ob/ob) mice. The experiment in a line: Blood glucose lowering activity in diabetic (ob/ob) mice. Format: in vivo. The note with it: Mus musculus, po. On the procedure: The procedures used and results obtained are briefly described below. […]
In each test procedure, mice [Male or female ob/ob (C57 B1/6J) and their lean litermates (ob/+ or +/+, Jackson Laboratories) ages 2 to 5 months (10 to 65 g)] of a similar age were randomized according to body weight into 4 groups of 10 mice. The mice were housed 5 per cage and are maintained on normal rodent chow with water ad libitum. Mice received test compound daily by gavage (suspended in 0.5 ml of 0.5% methyl cellulose); dissolved in the drinking water; or admixed in the diet. The dose of compounds given ranges from 2.5 to 200 mg/kg body weight/day. The dose is calculated based on the fed weekly body weight and is expressed as active moiety. […] Control mice received vehicle only.
On the morning of Day 4, 7 or 14 two drops of blood (approximetly 50 ul) were collected into sodium fluoride containing tubes either from the tail vein or after decapitation. For those studies in which the compound was administered daily by gavage the blood samples were collected two hours after compound administration. […]
Analysis of variance followed by Dunett's Comparison Test (one-tailed) are used to estimate the significant difference between the plasma glucose values from the control group and the individual compound treated groups (CMS SAS Release 5.18).

Data set [3] has as its target rat hepatic microsomal PTPases. The following applies: rat hepatic microsomal PTPase; for IC50: dodecaphosphopeptide substrate 50 uM; for % Change from Control at 50 μM: 50 μM compound.
Data set [4] concerns Human recombinant PTP1B (hPTP1B). Format: biochemical.
Where [5] appears, read: 96 h, plasma glucose on Day 4, 7 or 14, suffix a = no significant activity at this dose, read-out: % Change Glucose from Vehicle.
Where [6] appears, read: suffix a = no significant activity at this dose, read-out: % Change Insulin from Vehicle.

As for `CCCCc1oc2ccccc2c1Cc1cc(Br)c(OCC(=O)O)c(Br)c1` [Example 7], the melting point fell in the range of 118 to 119 °C. Also, the “% change from control at 10 μM” value in data set [1] (10 μM compound) is −99 (rPTP1B) %. For the same compound, the IC50 in data set [2] was found to be 1.4 µM. The change in vivo at 100 mg/kg with diabetic (ob/ob) mice (setting [5]) was -29.4%. Further, the change in vivo at 100 mg/kg with diabetic (ob/ob) mice (setting [6]) was -13.1%. The same compound came in with an IC50 in data set [3] of 22.7 µM.
As to `O=C(c1cc(Br)c(O)c(Br)c1)c1c(Cc2ccccc2)sc2ccccc12` [Example 11, (2-Benzyl-benzo[b]thiophen-3-yl)-(3,5-dibromo-4-hydroxy-phenyl)-methanone], the melting point was in the range of 155.5 to 156.5 °C. Also, the IC50 in data set [1] worked out at 3.97 µM. Also, the concentration for half-maximal inhibition (IC50) in data set [2] was found to be 1.94 µM. Moreover, the change in vivo at 100 mg/kg with diabetic (ob/ob) mice (setting [5]) is -30.3%. The change in vivo at 100 mg/kg with diabetic (ob/ob) mice (setting [6]) is -53.2%. Also, it took 33.9 µM to reach half-maximal inhibition in data set [3] (IC50).
In turn, `CCCCc1oc2ccccc2c1C(=O)c1cc(Br)c(O[C@H](Cc2ccccc2)C(=O)O)c(Br)c1` [Example 22, (R)-2-[2,6-dibromo-4-(2-butyl-benzofuran-3-carbonyl)-phenoxy]-3-phenyl-propionic acid] gave a melting point of 56 to 58 °C. For the same compound, the IC50 in data set [2] is 1.15 µM. Moreover, the “% Change from Control at 50 μM” value in data set [3] was −77%.
Take `CCCCc1oc2ccccc2c1C(=O)c1cc(I)c(O)c(I)c1` [Example 16, (2-Butyl-benzofuran-3-yl)-(4-hydroxy-3,5-diiodo-phenyl)-methanone]: the IC50 in data set [1] was determined as 0.19 µM; in data set [2], 2.6 µM; in data set [3] it was 15.3 µM. Besides, the change in vivo at 100 mg/kg in the data set with diabetic (ob/ob) mice (setting [5]) was -51.8%; in the data set with diabetic (ob/ob) mice (setting [6]), -73.7%.
In the case of “Ammonium molybdate tetrahydrate [reference compound]”, the “% change from control at 10 μM” value in data set [4] (reference standards, enzyme form (rPTP1B/hPTP1B) not given) stood at 8.7%.
As to `[Na+].[Na+].[Na+].[O]=[V]([O-])([O-])[O-]` [Sodium orthovanadate, reference compound], the “% change from control at 10 μM” value in data set [4] turned out to be 244.8%.
`CCCCc1oc2ccccc2c1Cc1cc(Br)c(O[C@H](Cc2ccccc2)C(=O)O)c(Br)c1` [Example 23, (R)-2-[2,6-dibromo-4-(2-butyl-benzofuran-3-ylmethyl)-phenoxy]-3-phenyl-propionic acid] had a melting point of 225 to 226 °C. The IC50 in data set [2] worked out at 0.87 µM. In addition, in data set [3], the “% Change from Control at 50 μM” value is given as −85%.
